Experimental data published in patent US20220331301A1, “CYSTIC FIBROSIS TRANSMEMBRANE CONDUCTANCE REGULATOR MODULATORS FOR TREATING AUTOSOMAL RESESSIVE POLYCYSTIC KIDNEY DISEASE” (The Johns Hopkins University, priority 2021, published 2022).
“Also recorded” adds a separate entry of the source.

How the values were obtained:
CFTR = CFTR colocalization in bile duct epithelia of Pkhd1^del3-4/del3-4 mice; assay type: in vivo; conditions: 30 mg/kg every other day for 30 days
Procedure: FIG. 13A and FIG. 13B show CFTR and CK19 colocalization in WT and Pkhd1^del3-4/del3-4 mice bile duct epithelia. […] Merged red and green channels are shown, wherein yellow indicates colocalization; the white square indicates the area of enlargement shown. FIG. 13B summarizes the Pearson's Correlation coefficient R. Bars represent the means±SEM. Samples were incubated with 5 μg/ml primary antibody CFTR (596) and CK19 (Invitrogen #PA5-29548) in blocking buffer for 16 hours at 4° C. Goat anti-rabbit Alexa Fluor 594 and anti-mouse Alexa Flour 488 conjugated secondary antibodies were used at a 1/250 dilution for 1 hour to label the proteins. Scale bar is 10 μm. **P<0.01, ****P<0.0001.
FIG. 14A and FIG. 14B show CFTR and E-Cadherin colocalization in WT and Pkhd1^del3-4/del3-4 mice bile duct epithelia. […] Merged red and green channels are shown, wherein yellow indicates colocalization; the white square indicates the area of enlargement shown. E-Cadherin is a marker of the lateral junctional membrane of epithelial cells (see, e.g., Bruser (2017) Adherens Junctions on the Move-Membrane Trafficking of E-Cadherin. Cold Spring Harb. Perspect. Biol. 9, a029140, incorporated herein by reference). FIG. 14B summarizes the Pearson's Correlation coefficient R in mutant cells. Samples were incubated with 5 μg/ml primary antibody CFTR (596) and eCadherin (R&D #AF748) in blocking buffer for 16 hours at 4° C. Goat anti-mouse Alexa Fluor 594 and anti-goat Alexa Flour 488 conjugated secondary antibodies were used at a 1/250 dilution for 1 hour to label the proteins. Scale bar is 10 μm. As shown by the data, Pkhd1^del3-4/del3-4 cholangiocytes have much greater colocalization of CFTR with the apical/lateral marker compared to WT cells. VX-809 treatment decreases E-cadherin colocalization of CFTR in mutant mice cells. All images were captured with a 63× oil objective. Significance was analyzed using unpaired t test. […]
FIG. 15A and FIG. 15B show CFTR and Na/K ATPase colocalization in WT and Pkhd1^del3-4/del3-4 mice bile duct epithelia. […] Significance was analyzed using unpaired t test. […]

PC1 null mice = conditions: shown previously, Yanda et al., 2018; cited from earlier work

lumacaftor [VX-809]
CFTR-CK19 colocalization (CFTR): significantly lowered the colocalization | CFTR-Na/K ATPase colocalization (basolateral membrane) (CFTR): increased the colocalization with the basolateral membrane; also recorded: significantly increased CFTR-Na/K ATPase colocalization | CFTR-eCadherin colocalization (CFTR): significantly lowered the colocalization | cysts in PC1 null mice (PC1 null mice): can reduce cysts
